From PubChem BioAssay (NCI) come the findings set out here.

Holding throughout (experiment): growth of human tumour cells (NCI), 48 h
For assay [1], the system named is DLD-1 colon.
The test system of assay [2] is KM20L2 colon.
Assay [3] deals with M19-MEL melanoma.
In assay [4] the test system is SNB-78 CNS.
Assay [5] relates to DMS 273 small cell lung.
Assay [6] deals with HOP-18 NSCLC.
Assay [7] deals with MDA-N.
For assay [8], the system named is BT-549 breast.
Assay [9] has as its system DMS 114 small cell lung.

Several values for one entry are separate records, joined by “and”; a condition that tells them apart may be missing. Equal values may be shown once.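 Five compound concentrations were applied to cells in 96-well plates for 48 hours; endpoints were derived by simple linear interpolation of the resulting dose-response curve. Here, GI50 denotes the concentration required for 50% inhibition of growth. TGI denotes the concentration required for complete inhibition of growth.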 Activity calls are given as the source filed them. Cut-off read from the data, not from the text of the source: active = GI50 below about 0.43 µM; inactive = the rest.

As for `CCCCCCC(=O)C/C(=N/NC(N)=S)C(=O)NC1C2CC3CC(C2)CC1C3` (centres undefined), the TGI in assay [1], in assay [2], in assay [3] and in [4] was more than 100 µM throughout.
For the molecule `N.N.O=C([O-])P(=O)([O-])[O-].[Na+].[Pt+4]`, the GI50 in [1], in assay [5], in assay [6], in assay [2] and in assay [4] was more than 100 µM each time. For the same molecule, the TGI in assay [1], in [5], in assay [6], in [2] and in assay [4] was more than 100 µM in each case.
As for `CN1C(=O)c2ccccc2NC(=O)C12O[C@@H]2c1cccc(O)c1` (some centres undefined), in assay [7], the TGI is more than 100 µM.
On to `O=c1[nH]c(=O)n(C2OC(CO)C(O)C(O)C2O)cc1F` (centres undefined), for which the TGI in assay [8], in assay [1], in assay [9], in assay [6], in [2] and in assay [3] was more than 100 µM throughout. Moreover, the TGI in assay [7] and in assay [4] was more than 100 µM in each case.
As for `C=C[C@H]1C[C@@H]2C[C@@H]3[C@H]4C/C=C\C(=O)NCCCC5NC(=O)C(=C(O)/C=C/[C@@H]4CC(=O)[C@H]3[C@@H]2[C@H]1C)C5=O` (some centres undefined), in assay [8], the GI50 was 0.158 µM and the TGI is 0.322 µM.
On to `O=C1OC(c2ccco2)=N/C1=C\c1cccc([N+](=O)[O-])c1`, for which the TGI in assay [8] and in assay [7] was more than 100 µM throughout.
Regarding `Cn1c2ccccc2c2c3[nH]c(=O)[nH]c(=O)c3c3c4ccccc4n(C)c3c21`, in assay [8], the GI50 is 2.83 µM and the TGI turned out to be 18.7 µM.
On to `CC(C)(C)c1cc(NC(=O)Cc2ccc(-c3cnc4cc(-c5cnn(CCN6CCOCC6)c5)ccc4n3)cc2)no1`, for which, in assay [8], the TGI is 39.5 µM and > 100 µM and > 3 µM.
As for `Cc1nc(-c2ccccc2)c(-c2ccccc2)s1`, the TGI was found to be 67.1 µM in assay [8] and 35.1 µM in assay [7].
As to `O=C(O)[C@@H]1CCCCN1Cc1cc2cc3c(cc2c2cc(OCc4ccccc4)ccc12)OCO3`, in assay [8], the GI50 was 2.97 µM and the TGI is 8.88 µM.
Take `Cc1ccc2[nH]c(C(=O)NN3C(=O)C(C)SC34CCCC(C)C4)c(-c3ccccc3)c2c1` (centres undefined): in assay [8], the GI50 is 76.7 µM and the TGI was more than 100 µM.
Take `Nc1nc(-c2cccc(Cl)c2)c(-c2ccc3ncccc3n2)s1`: in [8], the GI50 was more than 25 µM and the TGI is more than 25 µM.
On to `O=C1/C(=C/c2ccc(O)cc2)CSc2ccc(Cl)cc21`, for which, in [8], the GI50 is 15.7 µM and the TGI worked out at 38.3 µM.
For the molecule `CNc1nc(N)c(N=O)c(Nc2ccc(Br)cc2)n1`, the TGI in assay [8] and in assay [7] was more than 100 µM in each case.
With `COc1ccc(C2SCC(=O)N2NC(=O)Nc2c(C)nc3ccccn23)cc1` (centres undefined), in assay [8], the GI50 is 24.2 µM and the TGI worked out at 65 µM.
Consider `CON(C)C(=O)N1N=C(c2cc(F)ccc2F)SC1(CCCN)c1ccccc1` (centres undefined), for which, in assay [8], the GI50 is 0.302 µM and the TGI was found to be 17.5 µM.
As to `O=C(/C(=C/c1cccc([N+](=O)[O-])c1)c1ccccc1)c1ccccc1`, in assay [8], the GI50 was 3.38 µM and the TGI was 13.1 µM.
Consider `CO[C@H]1C=C[C@@]23c4cc5c(cc4CO[C@]2(O)CN(C)[C@H]3C1)OCO5`, for which the TGI in assay [8] and in assay [7] was more than 100 µM each time.
As to `CC1(C)N=C(N)N=C(N)N1c1ccc(OCc2ccc(S(=O)(=O)F)c(Cl)c2)c(Cl)c1`, in [8], the GI50 is 18.9 µM and the TGI was more than 100 µM.
Consider `COc1cc2c(c(OC)c1OC)-c1c(cc3c(c1OC)OCO3)C1OC2C(C)C1C` (centres undefined) (tested in a mixture with another compound), for which the TGI in assay [8] and in assay [7] was more than 100 µM in each case.
In the case of `Cc1ccc(NC(=O)c2sc3nc(C)c(C(O)c4ccccc4)cc3c2N)cc1` (centres undefined), in assay [8], the GI50 is 1.15 µM and the TGI turned out to be 33.7 µM.
Take `CC[C@H](C)[C@H]1O[C@]2(C=C[C@@H]1C)C[C@@H]1C[C@@H](C/C=C(\C)[C@@H](O[C@H]3C[C@H](OC)[C@@H](O[C@H]4C[C@H](OC)[C@@H](NC)[C@H](C)O4)[C@H](C)O3)[C@@H](C)/C=C/C=C3\CO[C@@H]4[C@H](O)C(C)=C[C@@H](C(=O)O1)[C@]34O)O2`: in assay [8], the GI50 was 4.13 µM and the TGI was 15.1 µM.
As to `c1cc2c(ncc3cscc32)s1`, the TGI in [1], in [9], in assay [5], in assay [3], in assay [7] and in assay [4] was more than 100 µM each time.
For the molecule `OC/C=C(\I)CCCOCOCc1ccccc1`, the TGI in assay [1] was more than 100 µM; in assay [9] it was 69 µM; in assay [5] it was 44.4 µM; in assay [2], more than 100 µM; in assay [3] it was more than 100 µM; in assay [4], more than 100 µM.
Take `CC1=N/C(=C\c2cccc([N+](=O)[O-])c2)C(=O)O1`: the TGI in assay [1], in assay [9], in [6], in assay [2], in [3] and in assay [4] was more than 100 µM throughout.
On to `CCCCCN(CCCCC)CC(O)c1ccc(Cl)c2ccccc12` (centres undefined), for which, in assay [8], the GI50 is 16.3 µM and the TGI is 33.7 µM.
For the molecule `C/C=C1/C(=C/c2[nH]c(/C=c3\[nH]/c(=C/C4=NC(=O)C(CC)=C4C)c(C)c3CCC(=O)O)c(CCC(=O)O)c2C)NC(=O)C1C` (centres undefined), the GI50 in assay [1], in assay [9], in [5], in assay [3] and in [4] was more than 150 µg/mL throughout. Besides, the TGI in assay [1], in [9], in assay [5], in assay [3] and in assay [4] was more than 150 µg/mL throughout. Further, the outcome in assay [2] was inactive.
